The record followed here is patent EP0211863B1, “VITAMIN D DERIVATIVES AND METHODS FOR PREPARING SAME” (WISCONSIN ALUMNI RESEARCH FOUNDATION, priority 1985, dated 1986).

Each structure is given as a SMILES string.

Assay [1] in a line: Bone calcium mobilization activity (serum calcium by atomic absorption). The format is in vivo. Conditions: male weanling rats on low calcium, vitamin D deficient diet for 3 weeks; 650 pmole intrajugularly, 7 h prior to sacrifice; ± standard deviation from the mean. The procedure: Bone calcium mobilization activity of 1α,25-(OH)₂-26-homo-D₃ compounds
Male weanling rats were purchased from Holtzman Co., Madison, Wis. and fed ad libitum a low calcium, vitamin D deficient diet as described by Suda et al (J. Nutrition 100: 1049, 1970) and water for 3 weeks. The rats were then divided into 4 groups of 6 each and were intrajugularly given respectively 650 pmole of either 1α,25-(OH)₂-26-homo-D₃, 1α,25-(OH)₂-(22E)Δ²²-26-homo-D₃ or 1α,25-(OH)₂D₃ dissolved in 0.05 ml of 95% ethanol 7 h prior to sacrifice. […] The rats in the control group were given 0.05 ml of ethanol vehicle in the same manner. They were killed by decapitation, the blood was collected and centrifuged to obtain serum. Serum calcium concentration was determined with an atomic absorption spectrophotometer (Perkin-Elmer Model 214) in presence of 0.1% lanthanum chloride.

In assay [2] the test system is human promyelocytic leukemia cells (HL-60 cells). The assay can be described thus: NBT-reduction assay for differentiation. The format is cell-based. The settings on record: four days (96 hr) incubation, read-out: concentration to achieve 60% differentiation. As to the method: (§1) The human promyelocytic leukemia cell line (HL-60) was maintained in suspension culture in RPMl 1640 medium (Gibco, Grand Island, NY) supplemented with 10% (v/v) heat inactivated fetal calf serum, 100 ug/ml penicillin, 100 µg/ml streptomycin and 0.25 µg/ml fungizone. Cells were cultured in a humidified atmosphere with 5% CO₂. Cell viability was assessed by standard assays, e.g. trypan blue exclusion. Morphological evaluations were done on Wright stained slide preparations.
(§2) Cells were seeded at 1.5 - 2 x 10⁵ cells/ml in 10 ml of medium in tissue culture dishes. […] Control cultures were treated with the same concentration of ethanol. After four days (96 hr) of incubation with test compounds, the cells were harvested from these culture dishes and cell number and viability were determined. […] After incubation of this mixture for 1 hr at 37°C, the number of phagocytic cells was counted (as determined by the trypan blue stained yeast appearing intracellularly) and expressed as a percent of the total viable cells present. […] After standing in a water bath for 30 min, the differentiated cells (i.e. the cells showing formazan blue deposits indicative of NBT reduction) were counted with a hemocytometer and expressed as the percent of total viable cells present.

For assay [3] the test system is unchanged. The assay can be described thus: Phagocytosis assay for differentiation activity. The settings on record: four days (96 hr) incubation. The format is cell-based. As to the method: as §1, §2

As for `C=C1/C(=C\C=C2/CCC[C@]3(C)[C@@H]([C@H](C)CCCC(C)(O)CC)CC[C@@H]23)C[C@@H](O)C[C@@H]1O` (stereo partly drawn) [1α,25-(OH)₂-26-homo-D₃, (25ξ)-1α,25-Dihydroxy-26-homovitamin D₃], the “Serum Calcium Concentration” value in assay [1] is 4.6 ± 0.2 ^b^) mg/100 ml.
As to `C=C1/C(=C\C=C2/CCC[C@]3(C)[C@@H]([C@H](C)CCCC(C)(C)O)CC[C@@H]23)C[C@@H](O)C[C@@H]1O` [1α,25-(OH)₂D₃, 1α,25-dihydroxyvitamin D₃], the “Serum Calcium Concentration” value in assay [1] is given as 4.5 ± 0.2 ^b^) mg/100 ml. The EC60 in assay [2] is 0.035 µM. Besides, the EC50 in assay [3] (Homo sapiens, HL-60, phagocytosis assay, read-out: concentration to achieve 50% differentiation) was around 0.01 µM. In addition, the “differentiation (% phagocytic cells)” value in assay [3] (concentration of 10⁻⁸ molar) is recorded as “about 47%”.
With `C=C1/C(=C\C=C2/CCC[C@]3(C)[C@@H]([C@H](C)/C=C/CC(C)(O)CC)CC[C@@H]23)C[C@@H](O)C[C@@H]1O` (stereo partly drawn) [1α,25-(OH)₂-(22E)Δ²²-26-homo-D₃, (22E,25ξ)-1α,25-Dihydroxy-22-dehydro-26-homovitamin D₃], in assay [1], the “Serum Calcium Concentration” value was 4.6 ± 0.3 ^b^) mg/100 ml.
